According to patent EP3329923A1, “THE POTENTIAL OF CRBN-INDEPENDENT IMID RESENSITIZATION BY EPIGENETIC THERAPY” (University of Copenhagen, priority 2016, dated 2018):

What was measured:
[1] = test system: OPM2; experiment: Cell proliferation, XTT dye absorbance (IC50 of IMiDs); format: cell-based; conditions: Homo sapiens, OPM-2, 72 h, XTT absorbance 3 days after treatment with IMiDs
From the text: (§1) A total of seven commercially available human myeloma cell lines (JJN3, OPM2, RPMI-8226, U266, NCI-H929, LP-1, KMS12-BM) were purchased from DSMZ (Leibniz Institute DSMZ-German Collection of Microorganisms and Cell Cultures, Braunschweig, Germany).
(§2) First, the present inventors tested the sensitivity of all HMCL to both lenalidomide and pomalidomide by generating dose-response curves and calculating the IC50 of both drugs for each cell line (given in tables below).

[2] = test system: JJN3; experiment: as above; format: cell-based; conditions: Homo sapiens, JJN-3, 72 h, XTT absorbance 3 days after treatment with IMiDs
From the text: as §1, §2

[3] = test system: RPMI-8226; experiment: as above; format: cell-based; conditions: Homo sapiens, RPMI-8226, 72 h, XTT absorbance 3 days after treatment with IMiDs
From the text: as §1, §2

[4] = test system: KMS12-BM; experiment: as above; format: cell-based; conditions: Homo sapiens, KMS-12-BM, 72 h, XTT absorbance 3 days after treatment with IMiDs
From the text: as §1, §2

[5] = test system: U266; experiment: as above; format: cell-based; conditions: Homo sapiens, U-266, 72 h, XTT absorbance 3 days after treatment with IMiDs
From the text: as §1, §2

[6] = test system: NCI-H929; experiment: as above; format: cell-based; conditions: Homo sapiens, 72 h, XTT absorbance 3 days after treatment with IMiDs
From the text: as §1, §2

[7] = test system: EZH2; conditions: EZH2 over EZH1; cited from earlier work
[8] = test system: all IMiD-resistant cell lines; experiment: Resensitization to IMiDs after 48 hours epidrug pretreatment, apoptosis and cell cycle assays; format: cell-based, human; conditions: epidrug pretreatment for 48 hours, then no treatment vs. 10 µM lenalidomide or pomalidomide; panobinostat as monotherapy or combined with 5-Azacytidine or EPZ-6438
[9] = test system: CRBN; experiment: CRBN expression by qPCR after epidrug treatment; conditions: OPM2-LR and OPM2-PR, monotherapy and combination (Figure 13A)
[10] = test system: OPM2-PR; experiment: Apoptosis assay (Annexin V and PI), resensitization to IMiDs; conditions: epidrug treatment 48 hours, then 10 µM lenalidomide or 10 µM Pomalidomide for 3 days (Figure 11B)
Procedure: Cell proliferation (and IC50 for each cell line) was assessed by measuring 2,3-Bis-(2-Methoxy-4-Nitro-5-Sulfophenyl)-2H-Tetrazolium-5-Carboxanilide (XTT) dye absorbance 3 days after treatment with IMiDs. Cell apoptosis was evaluated using Annexin V and PI, with the analysis performed on a FACS-Calibur (BD Bioscience).

[11] = test system: JJN3; experiment: Apoptosis assay, epigenetic sensitization in intrinsic IMiD resistance; conditions: JJN3, baseline IMiD resistance (Figure 13C)
Procedure: (§3) Cell apoptosis was evaluated using Annexin V and PI, with the analysis performed on a FACS-Calibur (BD Bioscience).
(§4) The present inventors then went on to examine whether the combination of epidrugs was effective in intrinsically IMiD-resistant cell lines.

[12] = test system: KMS12-BM; experiment: as above; conditions: baseline IMiD resistance (Figure 13C)
Procedure: as §3, §4

IC50 [3]	IC50 [5]	IC50 [6]	SMILES	IC50 [1]	IC50 [2]	IC50 [4]	resensitization to IMiDs (IMiD sensitivity) [8]	expression of CRBN [9]	further results
98.3 µM	60.5 µM	3 nM	Nc1cccc2c1C(=O)N(C1CCC(=O)NC1=O)C2=O (centres unmarked) [Pomalidomide]	2.01 µM	87.3 µM	15.2 µM			
			Cc1cc(C)c(CNC(=O)c2cc(-c3ccc(CN4CCOCC4)cc3)cc3c2cnn3C2CCCC2)c(=O)[nH]1 [EPZ005687]						selectivity for EZH2 compared to EZH1 [7]: 50 fold
118 µM	68.1 µM	563 nM	Nc1cccc2c1CN(C1CCC(=O)NC1=O)C2=O (centres unmarked) [Lenalidomide]	5.01 µM	136 µM	20.8 µM			
			Nc1ncn([C@@H]2O[C@H](CO)[C@@H](O)[C@H]2O)c(=O)n1 [5-Azacytidine, 4-amino-1-beta-D-ribofuranosyl-1,3,5-triazin-2(1H)-one]				did not restore IMiD sensitivity	remained low and unchanged	
			CCN(c1cc(-c2ccc(CN3CCOCC3)cc2)cc(C(=O)NCc2c(C)cc(C)[nH]c2=O)c1C)C1CCOCC1 [EPZ-6438, N-((4,6-dimethyl-2-oxo-1,2-dihydropyridin-3-yl)methyl)-5-(ethyl(tetrahydro-2H-pyran-4-yl)amino)-4-methyl-4'-(morpholinomethyl)-[1,1'-biphenyl]-3-carboxamide]				did not restore IMiD sensitivity	remained low and unchanged	resensitization to lenalidomide and pomalidomide (apoptosis) [10]: minor resensitization effect; sensitization to lenalidomide and pomalidomide [11]: able to render the cells sensitive to both lenalidomide and pomalidomide; sensitization to lenalidomide and pomalidomide [12]: able to render the cells sensitive to both lenalidomide and pomalidomide
